System: Escherichia coli K12
Assay: Digital same-sample filtration AST at two antibiotic concentrations (Example 13)
Format: cell-based
Conditions: for Both (number of wells) / Empty (number of wells) / Extracellular only (number of wells) / Intracellular only (number of wells): 19.0 to 21.2 minutes to centrifugation, 32 partitions, qPCR
Protocol: A 96-well microtiter plate was prepared for the experiment by placing Mueller-Hinton Broth (MHB) growth media and one of three different concentrations of ertapenem (ETP) sodium salt into each well. 32 of the wells contained 0 μg/mL of ETP antibiotic and served as reference condition antibiotic exposures; pure water was added instead of ETP dissolved in pure water. Another 32 of the wells contained 0.417 μg/mL of ETP (for a final concentration of 0.25 μg/mL). The last 32 wells contained 3.33 μg/mL of ETP (for a final concentration of 2.0 μg/mL). The 64 wells containing some ertapenem constituted the treated condition antibiotic exposures.
The inoculum was small enough that no detectable difference in the sample's optical density at 600 mm (OD600) was detectable by a spectrophotometer with a sensitivity of 0.01 absorbance units. After an incubation at 37° C., the media became turbid with an OD600 of 0.334 absorbance units after 3.5 hours of incubation.
In this experiment, the number and volume of sample partitions was restricted, for logistical reasons, to 96 partitions 25 μL in volume, specifically the wells of a 96-well plate. A target loading density of 0.5 cells per partition was set. The contrived clinical sample was diluted by a factor of 9.97239*10^−7 via a three-step serial dilution to an estimated density of […].
To begin the AST protocol, the diluted contrived clinical specimen was physically partitioned into the 96 samples by transferring 10 μL of the specimen, in 96 separate transfers (actually 8 transfers with a multichannel pipette), to each well of the 96-well microtiter plate containing ETP and MHB. Then, the entire plate was sealed with a RNase/DNase-free plastic, adhesive sealing membrane and placed on a thermal block set to 37° C. and shaking at 700 rpm.
After 8 minutes of incubation at 37° C., the exposures were taken back to the lab bench. The entire volume of each antibiotic exposure was transferred to a Millipore® 96-well sterile polystyrene MultiScreenHTS® filter plate (Millipore-Sigma MSGVS2210). Each well of the filter plate contained a hydrophilic polyvinylidene fluoride (PVDF) filter membrane with a […]. A 96-well polypropylene microtiter plate was affixed to the bottom of the filter plate. The filter plate was promptly centrifuged at 2200 relative centrifugal force for 5.0 minutes to speed the passage of the antibiotic exposure sample through the filter and into 96-well microtiter plate. The collected fluid was called the “filtrate.” In total, between 19.0 and 21.2 minutes elapsed between the first addition of cells to the exposure volume and the start of the centrifugation. The total time elapsed differed slightly among wells because cells could not be manually added to all wells at the exact same time.
8 μL of each filtrate was transferred to new containers containing 6 μL of Lucigen DNA Extraction Buffer, vortexed, centrifuged briefly to collect liquid at the bottom of the tube, and then heated for 6 minutes at 65° C. and then 4 minutes at 98° C.
After the creation of the filtrates, 30 μL of fresh MHB media was added to all filters. […] The purpose of this new volume of MHB was to wash away residual extracellular nucleic acids that might be confused for intracellular nucleic acids when the lysate was collected. The 30 μL of fresh MHB was centrifuged for 5 minutes at 2200 rcf into a clean 96-well plate, then discarded.
Next, 20 μL of DNA Extraction Buffer was placed into all of the wells of the filter plate, on top of the filters. The filter plate was heated to 65° C. for 6 minutes, without shaking, on a ThermoMixer® flat surface heating block. Intracellular nucleic acids were released from lysed cells into the DNA Extraction Buffer fluid. Then, the filter plate was taped to a clean 96-well polypropylene microtiter plate and centrifuged at 2200 rcf for 5 minutes. The DEB fluid that flowed through the filter was collected in the microtiter plate below the filter plate. […]

## C[C@@H](O)[C@H]1C(=O)N2C(C(=O)O)=C(S[C@@H]3CN[C@H](C(=O)Nc4cccc(C(=O)O)c4)C3)[C@H](C)[C@H]12 [ETP, ertapenem]
2.0 μg/mL condition, more exposure time or more cells needed for a conclusive result
  susceptibility interpretation: more likely to be susceptible
2.0 μg/mL condition, reference background 0/29
  proportion of lysis: 2/34
Treated 0.25 μg ETP/mL
  Intact (most likely number of cells): 26
  Lysed (most likely number of cells): 0
  Both (number of wells): 0
  Empty (number of wells): 15
  Extracellular only (number of wells): 0
  Intracellular only (number of wells): 17
Treated 2.00 μg ETP/mL
  Intact (most likely number of cells): 32
  Lysed (most likely number of cells): 2
  Both (number of wells): 2
  Empty (number of wells): 10
  Extracellular only (number of wells): 0
  Intracellular only (number of wells): 20

Reference: US20220282304A1, “SAME-SAMPLE ANTIBIOTIC SUSCEPTIBILITY TEST AND RELATED COMPOSITIONS, METHODS AND SYSTEMS” (CALIFORNIA INSTITUTE OF TECHNOLOGY, priority 2021, published 2022)
